The values below are quoted from earlier work in patent US20100323044A1, “ABNORMAL PROTEIN REMOVING METHOD” (FANCL CORPORATION, priority 2004, published 2010).

The conditions of this series: assumed, J Nutr 134 (2004); broken down by intestinal bacteria into soyasapogenol B, then absorbed.

Each structure is given as a SMILES string.

`C[C@@H]1O[C@@H](O[C@H]2[C@H](O[C@H]3[C@H](O[C@H]4CC[C@@]5(C)[C@@H](CC[C@]6(C)[C@@H]5CC=C5[C@@H]7CC(C)(C)C[C@@H](O)[C@]7(C)CC[C@]56C)[C@@]4(C)CO)O[C@H](C(=O)O)[C@@H](O)[C@@H]3O)O[C@H](CO)[C@H](O)[C@@H]2O)[C@H](O)[C@H](O)[C@H]1O` [soyasaponin I]: the “absorption in the human intestines” value is recorded as “not absorbed directly”.
